Like-named read-outs stand apart in the source and are kept apart here.
Experiments:
[1] = tested on: human multiple myeloma cell line, OPM-2; test: Cell viability assay (OPM-2 10 FBS), CellTiter-Glo; type: cell-based; details: Homo sapiens, OPM-2, 16 h
Method in brief: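 Steps: plate cells at 3000/well in 10% FBS growth medium, add serially diluted compound, incubate 16 h at 37 °C with 5% CO2, add detection reagent and read luminescence after 25 min. A 4-parameter logistic model gives IC50.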

[2] = biological target: recombinant human Mcl-1 (residues 171-327) / Bim interaction (Homo sapiens (Human), UniProt Q07820); test: biochemical; type: binding; details: read-out: Mcl-1 HTRF IC50
Sequence of recombinant human Mcl-1 (residues 171-327) / Bim interaction (Q07820 171-327): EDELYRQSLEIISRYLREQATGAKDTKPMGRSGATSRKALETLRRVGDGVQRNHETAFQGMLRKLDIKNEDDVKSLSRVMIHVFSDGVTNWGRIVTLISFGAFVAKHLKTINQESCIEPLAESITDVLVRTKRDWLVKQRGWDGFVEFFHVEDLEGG

[3] = read-out: OPM-2 10% FBS IC50 IP, OPM-2 cells, 10% FBS, 16 h, CellTiter-Glo
[4] = TR-FRET, Mcl-1(171-327) / biotin-Bim (51-76)
[5] = read-out: OPM-2 10% FBS IC50 IP, OPM-2 cells, 10% FBS, 16 h incubation
[6] = 0.1 nM Mcl-1(171-327), 0.05 nM biotin-Bim (51-76)

SMILES	IC50 [1, 3]	IC50 [2, 4]	IC50 [1, 5]	IC50 [2, 6]
CCCO[C@]1(C=O)/C=C/C[C@H](C)[C@@H](C)S(=O)(=O)NC(=O)c2ccc3c(c2)N(C[C@@H]2CC[C@H]21)C[C@@]1(CCCc2cc(Cl)ccc21)CO3 [Example 100602, (1S,3′R,6′R,7′R,8′E,11′S,12′R)-6-chloro-11′,12′-dimethyl-15′-oxo-7′-propoxy-3,4-dihydro-2H-spiro[naphthalene-1,22′-[20]oxa[13]thia[1,14]diazatetracyclo [14.7.2.0~3,6~.0~19,24~]pentacosa[8,16,18,24]tetraene]-7′-carbaldehyde 13′,13′-dioxide]	2330 nM	0.8 nM		
CO[C@@]1(CN2CCN3C(=O)[C@H](C)OC[C@@H]3C2)/C=C/C[C@H](C)[C@@H](C)S(=O)(=O)NC(=O)c2ccc3c(c2)N(C[C@@H]2CC[C@H]21)C[C@@]1(CCCc2cc(Cl)ccc21)CO3 [Example 143, (1S,3′R,6′R,7′S,8′E,11′S,12′R)-6-chloro-7′-methoxy-11′,12′-dimethyl-7′-(((3S,9aS)-3-methyl-4-oxohexahydropyrazino[2,1-c][1,4]oxazin-8(1H)-yl)methyl)-3,4-dihydro-2H,15′H-spiro[naphthalene-1,22′-[20]oxa[13]thia[1,14]diazatetracyclo [14.7.2.0~3,6~.0~19,24~]pentacosa[8,16,18,24]tetraen]-15′-one 13′,13′-dioxide]			219 nM	0.432 nM
C[C@@H]1[C@@H](C)C/C=C/[C@@](O)(c2ncnn2C)C2CC[C@H]2CN2C[C@@]3(CCCc4cc(Cl)ccc43)COc3ccc(cc32)C(=O)NS1(=O)=O (stereo in doubt) [Example 100222, (1S,3′R,6′S,7′S,8′E,11′S,12′R)-6-chloro-7′-hydroxy-11′,12′-dimethyl-7′-(1-methyl-1H-1,2,4-triazol-5-yl)-3,4-dihydro-2H,15′H-spiro[naphthalene-1,22′-[20]oxa[13]thia[1,14]diazatetracyclo [14.7.2.0~3,6~.0~19,24~]pentacosa[8,16,18,24]tetraen]-15′-one 13′,13′-dioxide]	222 nM	0.182 nM		
COCC(COC)N1CCN(C[C@]2(OC)/C=C/C[C@H](C)[C@@H](C)S(=O)(=O)NC(=O)c3ccc4c(n3)N(C[C@@H]3CC[C@H]32)C[C@@]2(CCCc3cc(Cl)ccc32)CO4)CC1 [Example 371, (1S,3′R,6′R,7′S,8′E,11′S,12′R)-6-chloro-7′-methoxy-7′-((4-(2-methoxy-1-(methoxymethyl)ethyl)-1-piperazinyl)methyl)-11′,12′-dimethyl-3,4-dihydro-2H,15′H-spiro[naphthalene1,22′-[20]oxa[13]thia[1,14,25]triazatetracyclo [14.7.2.0~3,6~.0~19,24~]pentacosa[8,16,18,24]tetraen]-15′-one 13′,13′-dioxide]			43 nM	0.101 nM
COCC1(N(C)C(=O)C[C@]2(OC)/C=C/C[C@H](C)[C@@H](C)S(=O)(=O)NC(=O)c3ccc4c(c3)N(C[C@@H]3CC[C@H]32)C[C@@]2(CCCc3cc(Cl)ccc32)CO4)CC1 [Example 100396, 2-((1S,3′R,6′R,7′S,8′E,11′S,12′R)-6-chloro-7′-methoxy-11′,12′-dimethyl-13′,13′-dioxido-15′-oxo-3,4-dihydro-2H-spiro[naphthalene-1,22′-[20]oxa[13]thia[1,14]diazatetracyclo [14.7.2.0~3,6~.0~19,24~]pentacosa[8,16,18,24]tetraen]-7′-yl)-N-(1-(methoxymethyl)cyclopropyl)-N-methylacetamide]	1470 nM	0.272 nM		
CO[C@@]1(CN2CC(=O)N3CCCC[C@@H]3C2)/C=C/C[C@H](C)[C@@H](C)S(=O)(=O)NC(=O)c2ccc3c(c2)N(C[C@@H]2CC[C@H]21)C[C@@]1(CCCc2cc(Cl)ccc21)CO3 [Example 150, (1S,3′R,6′R,7′S,8′E,11′S,12′R)-6-chloro-7′-methoxy-11′,12′-dimethyl-7′-(((9aR)-4-oxooctahydro-2H-pyrido[1,2-a]pyrazin-2-yl)methyl)-3,4-dihydro-2H,15′H-spiro[naphthalene-1,22′-[20]oxa[13]thia[1,14]diazatetracyclo [14.7.2.0~3,6~.0~19,24~]pentacosa[8,16,18,24]tetraen]-15′-one 13′,13′-dioxide]			245 nM	0.193 nM

From patent US10821115B2, “Compounds that inhibit Mcl-1 protein” (priority 2017, dated 2020)
